The compounds below were run against FP receptor (Homo sapiens (Human), UniProt P43088) (assay: In vitro test of inhibition of human FP receptor activity (PGF2α-induced calcium flux in FP-expressing CHEM1 cells)). Conditions: PGF2α-induced (2 nM) calcium flux in FP-expressing CHEM1 cells; some as mean values from multiple determinations.
Format: cell-based
From the text: Table 1 below lists the IC50 values from this assay for individual working examples of the invention (some as mean values from multiple independent individual determinations): […]

Chain of FP receptor (P43088 whole entry): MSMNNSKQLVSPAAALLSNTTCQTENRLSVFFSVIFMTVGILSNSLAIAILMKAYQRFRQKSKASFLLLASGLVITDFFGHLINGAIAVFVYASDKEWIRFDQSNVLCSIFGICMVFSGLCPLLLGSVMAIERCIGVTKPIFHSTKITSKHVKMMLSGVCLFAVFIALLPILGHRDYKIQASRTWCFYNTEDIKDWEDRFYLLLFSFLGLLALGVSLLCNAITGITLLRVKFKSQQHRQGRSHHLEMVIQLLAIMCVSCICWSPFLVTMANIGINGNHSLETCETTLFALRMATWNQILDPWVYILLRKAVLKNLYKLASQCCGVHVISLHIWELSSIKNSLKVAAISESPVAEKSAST

| IC50 | Structure (SMILES) |
| --- | --- |
| 12 nM | Cc1c(-c2ccccc2)nc2ccc(Br)cc2c1C(=O)NCC(CCC(=O)O)c1ccccc1F (single isomer, unassigned; (-)) [Example 176, (−)-5-{[(6-Bromo-3-methyl-2-phenylquinolin-4-yl)carbonyl]amino}-4-(2-fluorophenyl)pentanoic Acid] |
| 12 nM | O=C(O)CCC(CNC(=O)c1c(Cl)c(-c2ccccc2)nc2ccc(Br)cc12)c1c(F)ccc(F)c1Cl (single isomer, unassigned; (+)) [Example 223, (+)-5-{[(6-Bromo-3-chloro-2-phenylquinolin-4-yl)carbonyl]amino}-4-(2-chloro-3,6-difluorophenyl)pentanoic Acid] |
| 120 nM | COc1ccccc1C(C)(CNC(=O)c1c(C)c(-c2ccccc2)nc2ccc(Br)cc12)C(=O)O (single isomer, unassigned; (+)) [Example 60, (+)-3-{[(6-Bromo-3-methyl-2-phenylquinolin-4-yl)carbonyl]amino}-2-(2-methoxyphenyl)-2-methylpropanoic Acid] |
| 150 nM | Cc1c(-c2ccccc2)nc2ccc(Br)cc2c1C(=O)NCC(C)(CC(=O)O)c1ccccn1 (single isomer, unassigned; (-)) [Example 119, (−)-4-{[(6-Bromo-3-methyl-2-phenylquinolin-4-yl)carbonyl]amino}-3-methyl-3-(pyridin-2-yl)butanoic Acid] |
| 27 nM | Cc1c(-c2ccccc2)nc2ccc(Br)cc2c1C(=O)NCC(CC(=O)O)c1c(F)cccc1Cl (single isomer, unassigned; (+)) [Example 89, (+)-4-{[(6-Bromo-3-methyl-2-phenylquinolin-4-yl)carbonyl]amino}-3-(2-chloro-6-fluorophenyl)butanoic Acid] |
| 20 nM | Cc1c(-c2ccccc2)nc2ccc(Br)cc2c1C(=O)NCC(C)(CCCC(=O)O)c1ccccc1 (single isomer, unassigned; (-)) [Example 244, (−)-6-{[(6-Bromo-3-methyl-2-phenylquinolin-4-yl)carbonyl]amino}-5-methyl-5-phenylhexanoic Acid] |
| 84 nM | Cc1cccc(C(CNC(=O)c2c(C)c(-c3ccccc3)nc3ccc(Br)cc23)CC(=O)O)c1 (single isomer, unassigned) [Example 95, 4-{[(6-Bromo-3-methyl-2-phenylquinolin-4-yl)carbonyl]amino}-3-(3-methylphenyl)butanoic Acid] |
| 500 nM | Cc1c(-c2ccccc2)nc2ccc(Br)cc2c1C(=O)NCC(CC(=O)O)c1ccc(Cl)cc1 (racemic) [Example 66, (+/−)-4-{[(6-Bromo-3-methyl-2-phenylquinolin-4-yl)carbonyl]amino}-3-(4-chlorophenyl)butanoic Acid] |
| 600 nM | COc1cccc(C(CNC(=O)c2c(C)c(-c3ccccc3)nc3ccc(Br)cc23)C(=O)O)c1 (single isomer, unassigned; (-)) [Example 45, (−)-3-{[(6-Bromo-3-methyl-2-phenylquinolin-4-yl)carbonyl]amino}-2-(3-methoxyphenyl)propanoic Acid] |
| 190 nM | Cc1c(-c2ccccc2)nc2ccc(Br)cc2c1C(=O)NCC(C)(C(=O)O)c1ccccc1 (single isomer, unassigned; (+)) [Example 15, (+)-3-{[(6-Bromo-3-methyl-2-phenylquinolin-4-yl)carbonyl]amino}-2-methyl-2-phenylpropanoic Acid] |
| 28 nM | Cc1c(-c2ccccc2)nc2ccc(Br)cc2c1C(=O)NCC(CC(=O)O)c1ccccc1OC(F)(F)F (racemic) [Example 99, (+/−)-4-{[(6-Bromo-3-methyl-2-phenylquinolin-4-yl)carbonyl]amino}-3-[2-(trifluoromethoxy)phenyl]butanoic Acid] |
| 140 nM | Cc1c(-c2ccccc2)nc2ccc(Br)cc2c1C(=O)NCC(CC(=O)O)c1c(Cl)cccc1Cl (single isomer, unassigned) [Example 79, 4-{[(6-Bromo-3-methyl-2-phenylquinolin-4-yl)carbonyl]amino}-3-(2,6-dichlorophenyl)butanoic Acid] |
| 440 nM | COc1c(F)cc(F)cc1C(C)(CNC(=O)c1c(C)c(-c2ccccc2)nc2ccc(Br)cc12)CC(=O)O (single isomer, unassigned; (-)) [Example 137, (−)-4-{[(6-Bromo-3-methyl-2-phenylquinolin-4-yl)carbonyl]amino}-3-(3,5-difluoro-2-methoxyphenyl)-3-methylbutanoic Acid] |
| 99 nM | CCOc1ccccc1C(CNC(=O)c1c(C)c(-c2ccccc2)nc2ccc(Br)cc12)CC(=O)O (single isomer, unassigned; (+)) [Example 131, (+)-4-{[(6-Bromo-3-methyl-2-phenylquinolin-4-yl)carbonyl]amino}-3-(2-ethoxyphenyl)butanoic Acid] |
| 100 nM | Cc1c(-c2ccccc2)nc2ccc(Br)cc2c1C(=O)NCC(CC(=O)O)c1c(Cl)cccc1Cl (racemic) [Example 78, (+/−)-4-{[(6-Bromo-3-methyl-2-phenylquinolin-4-yl)carbonyl]amino}-3-(2,6-dichlorophenyl)butanoic Acid] |
| 8.2 nM | Cc1ccccc1C(CCC(=O)O)CNC(=O)c1c(C)c(-c2ccccc2)nc2ccc(Br)cc12 (single isomer, unassigned; (-)) [Example 161, (−)-5-{[(6-Bromo-3-methyl-2-phenylquinolin-4-yl)carbonyl]amino}-4-(2-methylphenyl)pentanoic Acid] |
| 47 nM | Cc1c(-c2ccccc2)nc2ccc(Br)cc2c1C(=O)NCC(F)(C(=O)O)c1ccccc1 (racemic) [Example 38, (+/−)-3-{[(6-Bromo-3-methyl-2-phenylquinolin-4-yl)carbonyl]amino}-2-fluoro-2-phenylpropanoic Acid] |
| 7.2 nM | Cc1c(-c2ccccc2)nc2ccc(Br)cc2c1C(=O)NCC(CCC(=O)O)c1c(F)cccc1F (single isomer, unassigned; (-)) [Example 182, (−)-5-{[(6-Bromo-3-methyl-2-phenylquinolin-4-yl)carbonyl]amino}-4-(2,6-difluorophenyl)pentanoic Acid] |
| 180 nM | Cc1c(-c2ccccc2)nc2ccc(Br)cc2c1C(=O)NCC(C(=O)O)c1ccc(F)cc1 (single isomer, unassigned) [Example 12, 3-{[(6-Bromo-3-methyl-2-phenylquinolin-4-yl)carbonyl]amino}-2-(4-fluorophenyl)propanoic Acid] |
| 2.8 nM | O=C(O)CCC(CNC(=O)c1c(Cl)c(-c2ccccc2)nc2ccc(Br)cc12)c1ccccc1Cl (single isomer, unassigned; (-)) [Example 213, (−)-5-{[(6-Bromo-3-chloro-2-phenylquinolin-4-yl)carbonyl]amino}-4-(2-chlorophenyl)pentanoic Acid] |
| 10 nM | C#Cc1ccc2nc(-c3ccccc3)c(C)c(C(=O)NCC(CCC(=O)O)c3ccccc3Cl)c2c1 (single isomer, unassigned; (-)) [Example 219, (−)-4-(2-Chlorophenyl)-5-{[(6-ethynyl-3-methyl-2-phenylquinolin-4-yl)carbonyl]amino}pentanoic Acid] |
| 19 nM | O=C(O)CCC(CNC(=O)c1c(Cl)c(-c2ccccc2)nc2ccc(Br)cc12)c1ccccc1C(F)(F)F (single isomer, unassigned; (+)) [Example 217, (+)-5-{[(6-Bromo-3-chloro-2-phenylquinolin-4-yl)carbonyl]amino}-4-[2-(trifluoromethyl)phenyl]pentanoic Acid] |
| 13 nM | C#Cc1ccc2nc(-c3ccccc3)c(C)c(C(=O)NCC(CCC(=O)O)c3ccccc3Cl)c2c1 (racemic) [Example 218, (+/−)-4-(2-Chlorophenyl)-5-{[(6-ethynyl-3-methyl-2-phenylquinolin-4-yl)carbonyl]amino}pentanoic Acid] |
| 79 nM | Cc1c(-c2ccccc2)nc2ccc(Br)cc2c1C(=O)NCC(CC(=O)O)c1cccc(Cl)c1 (single isomer, unassigned) [Example 74, 4-{[(6-Bromo-3-methyl-2-phenylquinolin-4-yl)carbonyl]amino}-3-(3-chlorophenyl)butanoic Acid] |
| 10 nM | Cc1ccc(F)cc1C(CCC(=O)O)CNC(=O)c1c(C)c(-c2ccccc2)nc2ccc(Br)cc12 (single isomer, unassigned; (-)) [Example 207, (−)-5-{[(6-Bromo-3-methyl-2-phenylquinolin-4-yl)carbonyl]amino}-4-(5-fluoro-2-methylphenyl)pentanoic Acid] |
| 33 nM | Cc1ccccc1C(CCC(=O)O)CNC(=O)c1c(C)c(-c2ccccc2)nc2ccc(Br)cc12 (single isomer, unassigned; (+)) [Example 162, (+)-5-{[(6-Bromo-3-methyl-2-phenylquinolin-4-yl)carbonyl]amino}-4-(2-methylphenyl)pentanoic Acid] |
| 16 nM | Cc1c(-c2ccccc2)nc2ccc(Br)cc2c1C(=O)NCC(C)(CC(=O)O)c1ncccc1Cl (racemic) [Example 84, (+/−)-4-{[(6-Bromo-3-methyl-2-phenylquinolin-4-yl)carbonyl]amino}-3-(3-chloropyridin-2-yl)-3-methylbutanoic Acid] |
| 13 nM | Cc1ccc(F)cc1C(CCC(=O)O)CNC(=O)c1c(C)c(-c2ccccc2)nc2ccc(Br)cc12 (racemic) [Example 206, (+/−)-5-{[(6-Bromo-3-methyl-2-phenylquinolin-4-yl)carbonyl]amino}-4-(5-fluoro-2-methylphenyl)pentanoic Acid] |
| 96 nM | Cc1cccc(C(CNC(=O)c2c(C)c(-c3ccccc3)nc3ccc(Br)cc23)CC(=O)O)c1 (single isomer, unassigned) [Example 94, 4-{[(6-Bromo-3-methyl-2-phenylquinolin-4-yl)carbonyl]amino}-3-(3-methylphenyl)butanoic Acid] |

| Structure (SMILES) | IC50 |
| --- | --- |
| Cc1c(-c2ccccc2)nc2ccc(Br)cc2c1C(=O)NCC(CCC(=O)O)c1ccccc1Cl (racemic) [Example 151, (+/−)-5-{[(6-Bromo-3-methyl-2-phenylquinolin-4-yl)carbonyl]amino}-4-(2-chlorophenyl)pentanoic Acid] | 7.8 nM |
